Results published in US20200172529A1, “Chemical Compound, Pharmaceutical Composition Thereof, and Use and Application Thereof” (Beijing Hanmi Pharm. Co., Ltd., priority 2017, published 2020).

Assays:
Type in all cases: biochemical
[1] = biological target: T1, TYK2 kinase (Homo sapiens, UniProt P29597); assay: Inhibition assay of TYK2 kinase activity (ADP-Glo Kinase Assay)
T1 construct: purchased Life Technologies PR8440C
In short: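 Enzyme at 0.8 ng/mL (2-fold final) in 40 mM Tris-HCl pH 7.5, 20 mM MgCl2, 0.1 mg/mL BSA, 1 mM DTT, preincubated 10 min with compound (6 points, 10-fold dilutions from 10 μM). ATP plus polyE4Y1 then added for 60 min at room temperature. ADP-Glo luminescence read and IC50 derived.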

[2] = biological target: JAK2 kinase (Homo sapiens, UniProt O60674); assay: Inhibition assay of JAK2 kinase activity (ADP-Glo Kinase Assay)
Excerpt: Inhibition assay of JAK2 kinase activity: the method in ADP-Glo™ Kinase Assay (Promega, V9102) was used to determine the inhibitory activity of the test compounds against JAK2 kinase.

[3] = biological target: JAK1 kinase (Homo sapiens, UniProt P23458); assay: Inhibition assay of JAK1 kinase activity (ADP-Glo Kinase Assay)
Excerpt: Inhibition assay of JAK1 kinase activity: the method in ADP-Glo™ Kinase Assay (Promega, V9102) was used to determine the inhibitory activity of the test compounds against JAK1 kinase.

[4] = biological target: SYK kinase (Homo sapiens, UniProt P43405); assay: Inhibition assay of SYK kinase activity (ADP-Glo Kinase Assay)
Excerpt: Inhibition assay of SYK kinase activity: the method in ADP-Glo™ Kinase Assay (Promega, V9102) was used to determine the inhibitory activity of the test compounds against SYK kinase.

[5] = biological target: T2, JAK3 kinase (Homo sapiens, UniProt P52333); assay: Inhibition assay of JAK3 kinase activity (ADP-Glo Kinase Assay)
T2 sequence (P52333 1-1124): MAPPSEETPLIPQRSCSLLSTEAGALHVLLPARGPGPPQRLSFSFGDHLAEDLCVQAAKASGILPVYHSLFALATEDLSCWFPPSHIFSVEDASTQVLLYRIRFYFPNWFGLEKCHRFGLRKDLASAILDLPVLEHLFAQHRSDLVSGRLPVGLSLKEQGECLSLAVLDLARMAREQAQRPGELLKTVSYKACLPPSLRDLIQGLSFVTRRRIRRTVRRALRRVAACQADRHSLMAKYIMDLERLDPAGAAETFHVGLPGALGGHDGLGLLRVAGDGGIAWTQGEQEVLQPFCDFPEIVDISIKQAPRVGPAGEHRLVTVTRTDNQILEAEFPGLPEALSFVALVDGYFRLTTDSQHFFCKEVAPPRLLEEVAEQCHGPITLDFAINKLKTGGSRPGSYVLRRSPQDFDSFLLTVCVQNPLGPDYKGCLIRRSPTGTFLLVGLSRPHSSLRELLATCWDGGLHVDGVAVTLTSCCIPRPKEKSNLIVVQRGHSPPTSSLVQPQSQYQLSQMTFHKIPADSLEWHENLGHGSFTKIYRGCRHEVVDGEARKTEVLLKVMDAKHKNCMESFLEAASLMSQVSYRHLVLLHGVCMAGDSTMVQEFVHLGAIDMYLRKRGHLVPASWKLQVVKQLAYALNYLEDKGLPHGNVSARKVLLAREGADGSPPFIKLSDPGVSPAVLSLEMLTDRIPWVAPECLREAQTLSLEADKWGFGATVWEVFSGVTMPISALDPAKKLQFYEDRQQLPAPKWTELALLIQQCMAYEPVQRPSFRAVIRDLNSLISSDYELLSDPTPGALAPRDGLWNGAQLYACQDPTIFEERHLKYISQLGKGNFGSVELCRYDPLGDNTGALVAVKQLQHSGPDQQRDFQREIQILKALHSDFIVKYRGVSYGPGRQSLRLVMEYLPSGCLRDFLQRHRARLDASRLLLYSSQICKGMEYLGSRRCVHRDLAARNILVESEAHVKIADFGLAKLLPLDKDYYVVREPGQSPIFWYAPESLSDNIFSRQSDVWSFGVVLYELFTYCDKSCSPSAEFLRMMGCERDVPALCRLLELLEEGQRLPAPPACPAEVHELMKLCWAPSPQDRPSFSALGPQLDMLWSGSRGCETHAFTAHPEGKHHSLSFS
Excerpt: Inhibition assay of JAK3 kinase activity: the method in ADP-Glo™ Kinase Assay (Promega, V9102) was used to determine the inhibitory activity of the test compounds against JAK3 kinase.

Chain of JAK1 kinase (P23458 whole entry): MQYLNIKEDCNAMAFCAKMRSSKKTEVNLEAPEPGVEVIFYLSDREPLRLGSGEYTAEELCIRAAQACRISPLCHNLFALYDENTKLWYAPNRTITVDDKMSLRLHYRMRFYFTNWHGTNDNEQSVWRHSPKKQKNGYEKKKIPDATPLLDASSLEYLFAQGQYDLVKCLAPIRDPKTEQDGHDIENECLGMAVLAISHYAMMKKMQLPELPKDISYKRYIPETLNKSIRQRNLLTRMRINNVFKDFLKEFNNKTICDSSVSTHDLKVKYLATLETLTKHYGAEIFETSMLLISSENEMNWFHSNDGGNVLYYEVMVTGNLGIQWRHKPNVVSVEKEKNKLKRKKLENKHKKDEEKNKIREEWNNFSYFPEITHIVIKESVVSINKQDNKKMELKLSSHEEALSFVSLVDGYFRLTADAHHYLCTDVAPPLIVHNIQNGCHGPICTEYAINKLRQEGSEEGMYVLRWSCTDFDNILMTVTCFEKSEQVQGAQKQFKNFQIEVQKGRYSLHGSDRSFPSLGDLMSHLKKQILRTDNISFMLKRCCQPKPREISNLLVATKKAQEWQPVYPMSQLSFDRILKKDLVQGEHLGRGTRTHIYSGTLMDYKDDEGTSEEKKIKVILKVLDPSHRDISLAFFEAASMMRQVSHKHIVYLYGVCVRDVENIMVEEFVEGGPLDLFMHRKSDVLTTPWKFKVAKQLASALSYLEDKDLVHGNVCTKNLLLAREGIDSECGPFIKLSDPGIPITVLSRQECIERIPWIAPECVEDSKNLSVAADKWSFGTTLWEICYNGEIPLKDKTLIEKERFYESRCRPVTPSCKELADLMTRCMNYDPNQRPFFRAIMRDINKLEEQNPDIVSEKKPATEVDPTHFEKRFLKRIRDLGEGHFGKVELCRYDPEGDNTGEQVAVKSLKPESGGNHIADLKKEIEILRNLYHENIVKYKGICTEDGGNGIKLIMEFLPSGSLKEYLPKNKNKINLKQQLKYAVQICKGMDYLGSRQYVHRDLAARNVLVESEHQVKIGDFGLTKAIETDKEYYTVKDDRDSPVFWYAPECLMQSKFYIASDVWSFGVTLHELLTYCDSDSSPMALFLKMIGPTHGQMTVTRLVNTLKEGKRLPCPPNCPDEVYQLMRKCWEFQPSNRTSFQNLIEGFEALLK
Chain of JAK2 kinase (O60674 whole entry): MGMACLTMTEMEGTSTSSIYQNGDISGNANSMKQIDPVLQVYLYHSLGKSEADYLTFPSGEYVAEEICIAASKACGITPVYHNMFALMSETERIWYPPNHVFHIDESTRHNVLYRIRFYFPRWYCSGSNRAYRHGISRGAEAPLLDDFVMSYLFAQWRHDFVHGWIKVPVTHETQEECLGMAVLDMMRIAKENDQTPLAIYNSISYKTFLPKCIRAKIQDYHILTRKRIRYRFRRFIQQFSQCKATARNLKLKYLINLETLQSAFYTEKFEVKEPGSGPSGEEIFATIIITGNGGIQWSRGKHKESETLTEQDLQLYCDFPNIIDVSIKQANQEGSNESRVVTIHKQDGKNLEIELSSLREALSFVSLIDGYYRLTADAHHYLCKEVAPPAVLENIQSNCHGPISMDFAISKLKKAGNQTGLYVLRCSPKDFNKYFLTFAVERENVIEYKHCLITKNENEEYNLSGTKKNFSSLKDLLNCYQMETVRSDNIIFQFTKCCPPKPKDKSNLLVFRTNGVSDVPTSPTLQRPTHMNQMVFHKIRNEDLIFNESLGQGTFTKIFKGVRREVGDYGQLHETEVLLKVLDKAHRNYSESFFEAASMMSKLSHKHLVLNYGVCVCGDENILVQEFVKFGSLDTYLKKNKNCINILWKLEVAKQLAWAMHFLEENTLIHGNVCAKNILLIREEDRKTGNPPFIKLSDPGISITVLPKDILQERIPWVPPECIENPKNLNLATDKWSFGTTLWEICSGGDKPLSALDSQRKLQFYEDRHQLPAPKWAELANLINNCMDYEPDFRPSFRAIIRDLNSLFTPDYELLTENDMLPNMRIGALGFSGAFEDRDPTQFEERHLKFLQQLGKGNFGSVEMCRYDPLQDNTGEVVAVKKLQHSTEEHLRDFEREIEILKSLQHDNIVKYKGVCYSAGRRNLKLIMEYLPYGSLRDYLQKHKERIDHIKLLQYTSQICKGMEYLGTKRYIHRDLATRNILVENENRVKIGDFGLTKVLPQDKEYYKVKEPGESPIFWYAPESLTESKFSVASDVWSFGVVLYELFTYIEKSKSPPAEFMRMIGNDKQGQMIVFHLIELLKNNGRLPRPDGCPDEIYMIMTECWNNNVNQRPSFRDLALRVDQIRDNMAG
T1 sequence (P29597 whole entry): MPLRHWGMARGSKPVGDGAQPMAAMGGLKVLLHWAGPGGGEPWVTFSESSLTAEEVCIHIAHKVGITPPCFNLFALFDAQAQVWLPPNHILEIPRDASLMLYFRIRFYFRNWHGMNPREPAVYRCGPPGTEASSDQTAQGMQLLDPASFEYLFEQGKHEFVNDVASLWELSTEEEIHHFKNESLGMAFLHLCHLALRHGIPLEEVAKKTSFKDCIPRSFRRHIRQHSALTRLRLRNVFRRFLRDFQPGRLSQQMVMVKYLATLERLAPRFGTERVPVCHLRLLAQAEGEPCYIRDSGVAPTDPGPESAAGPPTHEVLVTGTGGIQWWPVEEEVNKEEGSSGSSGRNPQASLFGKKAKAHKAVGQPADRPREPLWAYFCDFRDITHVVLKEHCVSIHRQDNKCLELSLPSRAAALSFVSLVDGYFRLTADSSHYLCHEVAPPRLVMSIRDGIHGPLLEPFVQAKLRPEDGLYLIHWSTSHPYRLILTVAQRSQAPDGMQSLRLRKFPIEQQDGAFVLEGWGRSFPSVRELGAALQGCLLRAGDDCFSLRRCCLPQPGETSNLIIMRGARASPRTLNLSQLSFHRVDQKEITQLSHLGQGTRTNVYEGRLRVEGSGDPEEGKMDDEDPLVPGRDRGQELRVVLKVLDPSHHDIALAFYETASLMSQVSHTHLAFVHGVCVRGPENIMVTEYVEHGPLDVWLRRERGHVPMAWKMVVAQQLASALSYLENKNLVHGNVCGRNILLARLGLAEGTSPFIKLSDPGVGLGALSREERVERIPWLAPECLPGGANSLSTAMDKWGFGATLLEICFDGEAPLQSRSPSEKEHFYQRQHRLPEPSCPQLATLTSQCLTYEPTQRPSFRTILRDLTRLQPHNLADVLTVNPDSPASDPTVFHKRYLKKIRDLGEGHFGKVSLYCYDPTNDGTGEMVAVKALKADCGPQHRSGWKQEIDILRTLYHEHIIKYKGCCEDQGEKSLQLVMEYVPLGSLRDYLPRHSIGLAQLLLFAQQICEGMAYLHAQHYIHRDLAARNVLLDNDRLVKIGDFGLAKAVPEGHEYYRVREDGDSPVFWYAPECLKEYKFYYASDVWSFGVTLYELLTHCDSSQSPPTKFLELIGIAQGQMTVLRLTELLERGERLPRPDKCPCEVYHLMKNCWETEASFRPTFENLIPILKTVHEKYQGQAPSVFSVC

IC50 [1] [nM]	IC50 [2] [nM]	IC50 [3] [nM]	IC50 [4] [nM]	IC50 [5] [nM]	Structure (SMILES)
< 10	< 10	< 10	10 to 100	10 to 100	CC1(Nc2nc(Nc3ccc4c(c3)NC[C@H](O)CO4)ncc2C(N)=O)CC1 [Example 68, 4-((1-methylcyclopropyl)amino)-2-(((S)-2,3,4,5-tetrahydro-3-hydroxybenzo[b][1,4]oxazepin-7-yl)amino)pyrimidin-5-carboxamide]
< 10	10 to 100	< 10	10 to 100	10 to 100	NC(=O)c1cnc(Nc2ccc3c(c2)NC[C@H](OCC2CCCO2)CO3)nc1NC1CC1 (stereo partly drawn) [Example 97, 4-(cyclopropylamino)-2-(((S)-2,3,4,5-tetrahydro-3-((tetrahydrofuran-2-yl)methoxy)benzo[b][1,4]oxazepin-7-yl)amino)pyrimidin-5-carboxamide]
< 10	10 to 100	10 to 100	10 to 100	10 to 100	COC1CNc2cc(Nc3ncc(C(N)=O)c(NC4CC4)n3)ccc2OC1 (stereo not drawn) [Example 24, 4-(cyclopropylamino)-2-((3-methoxy-2,3,4,5-tetrahydro-benzo[b][1,4]oxazepin-7-yl)amino)pyrimidin-5-carboxamide]
10 to 100	< 10	< 10	10 to 100	< 10	C=CCCNc1nc(Nc2ccc3c(c2)NC[C@H](O)CO3)ncc1C(N)=O [Example 76, 4-(but-3-enylamino)-2-(((S)-2,3,4,5-tetrahydro-3-hydroxybenzo[b][1,4]oxazepin-7-yl)amino)pyrimidin-5-carboxamide]
< 10	< 10	10 to 100	10 to 100	< 10	CO[C@@H]1CNc2cc(Nc3ncc(C(N)=O)c(NC4CC4)n3)ccc2OC1 [Example 80, 4-(cyclopropylamino)-2-(((R)-2,3,4,5-tetrahydro-3-methoxybenzo[b][1,4]oxazepin-7-yl)amino)pyrimidin-5-carboxamide]
< 10	10 to 100	< 10	10 to 100	10 to 100	CC1(CO[C@H]2CNc3cc(Nc4ncc(C(N)=O)c(NC5CC5)n4)ccc3OC2)COC1 [Example 101, 4-(cyclopropylamino)-2-(((S)-2,3,4,5-tetrahydro-3-((3-methyloxetan-3-yl)methoxy)benzo[b][1,4]oxazepin-7-yl)amino)pyrimidin-5-carboxamide]
< 10	< 10	< 10	10 to 100	10 to 100	NC(=O)c1cnc(Nc2ccc3c(c2)NC[C@H](OCC(=O)O)CO3)nc1NC1CC1 [Example 94, 4-(cyclopropylamino)-2-(((S)-2,3,4,5-tetrahydro-3-(carboxymethoxy)benzo[b][1,4]oxazepin-7-yl)amino)pyrimidin-5-carboxamide]
< 10	10 to 100	< 10	10 to 100	10 to 100	CCCNc1nc(Nc2ccc3c(c2)NC[C@H](O)CO3)ncc1C(N)=O [Example 69, 4-(propylamino)-2-(((S)-2,3,4,5-tetrahydro-3-hydroxybenzo[b][1,4]oxazepin-7-yl)amino)pyrimidin-5-carboxamide]
< 10	10 to 100	< 10	10 to 100	10 to 100	COCCCO[C@H]1CNc2cc(Nc3ncc(C(N)=O)c(NC4CC4)n3)ccc2OC1 [Example 98, 4-(cyclopropylamino)-2-(((S)-2,3,4,5-tetrahydro-3-(3-methoxypropoxy)benzo[b][1,4]oxazepin-7-yl)amino)pyrimidin-5-carboxamide]
< 10	10 to 100	< 10	10 to 100	10 to 100	COCCO[C@H]1CNc2cc(Nc3ncc(C(N)=O)c(NC4CC4)n3)ccc2OC1 [Example 78, 4-(cyclopropylamino)-2-(((S)-2,3,4,5-tetrahydro-3-methoxyethoxybenzo[b][1,4]oxazepin-7-yl)amino)pyrimidin-5-carboxamide]
< 10	< 10	< 10	10 to 100	< 10	NC(=O)c1cnc(Nc2ccc3c(c2)NC[C@H](OCCO)CO3)nc1NC1CC1 [Example 92, 4-(cyclopropylamino)-2-(((S)-2,3,4,5-tetrahydro-3-(2-hydroxyethoxy)benzo[b][1,4]oxazepin-7-yl)amino)pyrimidin-5-carboxamide]
< 10	10 to 100	< 10	10 to 100	10 to 100	NC(=O)c1cnc(Nc2ccc3c(c2)NC[C@H](O)CO3)nc1NC1CC1F (stereo partly drawn) [Example 57, 4-((2-fluorocyclopropyl)amino)-2-(((S)-2,3,4,5-tetrahydro-3-hydroxybenzo[b][1,4]oxazepin-7-yl)amino)pyrimidin-5-carboxamide]
< 10	< 10	< 10	10 to 100	< 10	NC(=O)c1cnc(Nc2ccc3c(c2)NC[C@H](O)CO3)nc1NCC1CC1 [Example 44, 4-((cyclopropylmethyl)amino)-2-(((S)-2,3,4,5-tetrahydro-3-hydroxybenzo[b][1,4]oxazepin-7-yl)amino)pyrimidin-5-carboxamide]
< 10	< 10	10 to 100	10 to 100	< 10	NC(=O)c1cnc(Nc2ccc3c(c2)NC[C@@H](O)CO3)nc1NC1CC1 [Example 25, (R)-4-(cyclopropylamino)-2-((3-hydroxy-2,3,4,5-tetrahydro-benzo[b][1,4]oxazepin-7-yl)amino)pyrimidin-5-carboxamide]
< 10	10 to 100	< 10	10 to 100	10 to 100	CCOC(=O)CO[C@H]1CNc2cc(Nc3ncc(C(N)=O)c(NC4CC4)n3)ccc2OC1 [Example 91, 4-(cyclopropylamino)-2-(((S)-2,3,4,5-tetrahydro-3-ethoxycarbonylmethoxybenzo[b][1,4]oxazepin-7-yl)amino)pyrimidin-5-carboxamide]
